Test system: whole blood glucose
Test: In vivo delivery of insulin to fasted rats via oral gavage (whole blood glucose)
Set-up: species or system rat
Conditions: male Sprague-Dawley rats, delivery agent 200 mg/kg with insulin (human recombinant) 0.5 mg/kg
Experimental: Insulin (human recombinant) was obtained from ICN Biomedicals (Aurora, Ohio) as a bulk powder. To prepare stock solutions, insulin was dissolved in deionized water (pH˜6.5) to obtain a concentration of 15 mg/ml. Stock solutions were kept frozen at −20° C. in 1.0-ml aliquots until used. For dosing solutions, delivery agent was dissolved in deionized water to obtain a final concentration of 200 mg/ml. The free acid form of delivery agent was converted to the sodium salt by adding one equivalent of sodium hydroxide. Solutions were vortexed, sonicated, and heated, and if necessary, additional sodium hydroxide was added in μl quantities to achieve uniform solubility. Solutions were adjusted to a pH of 3.5-8.5 by the addition of either hydrochloric acid or sodium hydroxide. Insulin stock (typically 66.7 μls) was then added to the delivery agent solution to obtain a final concentration of 0.5 mg/ml. After solubilization and drug addition, solutions were brought to final volume by the addition of deionized water.
Insulin was administered to male, Sprague-Dawley rats either alone or in combination with an Emisphere delivery agent by oral gavage (PO). Rats were fasted for 18-24 hours prior to dosing. For dosing, a Rusch 8 French catheter was cut to 11 cm in length and adapted to fit a 1-ml syringe. The syringe was filled with dosing solution and the catheter was wiped dry of excess solution. The catheter was inserted into the rat mouth and fed down the esophagus (10.0 cm). The dosing solution was delivered by pressing the syringe plunger while holding the rat in an upright position.
During blood sampling, rats were exposed briefly (˜10 sec) to carbon dioxide until prostrate, immediately prior to each sampling time point. For blood sampling, a 77-mm capillary tube was inserted into the retroorbital sinus. Typically, blood samples were collected prior to dosing (time 0) and at 15, 30, 45, and 60 minutes after dosing. Samples were collected into Capiject® tubes (Terumo Corporation, Tokyo, Japan) containing a clot activator (red top, serum separator tubes). Samples were allowed to clot for ˜20 min at 4° C. After clotting, samples were centrifuged at 10,000 rpm for 4 minutes at 6° C. in order to separate the serum. Serum was collected into eppendorf tubes and frozen at −20° C. until assayed.
In order to determine the pharmacodynamic response, a hand-held glucometer (OneTouch Ultra, LifeScan® (Johnson & Johnson, New Brunswick, N.J.)) was used to measure whole blood glucose after administration of insulin or insulin and delivery agent. Samples were collected either from the retroorbital sinus (see Sample collection and handling: Insulin) or from the tail artery (i.e. tail clip). For tail clipping, the tip of the tail was severed approximately 5 mm from the tip using a scalpel blade. After discarding the first drop of blood, a small sample (˜5-10 μl) was touched to the glucometer test strip (OneTouch Ultra, LifeScan) and a blood glucose reading was generated by the meter. For each subsequent sampling time point, the clot formed at the tip of the tail was broken up and a fresh sample was collected. Typically, samples were collected prior to dosing (time 0) and at 15, 30, 45, and 60 minutes after dosing.
Concentrations of insulin were quantified in rat serum using a sandwich-type ELISA (kit; Diagnostic Systems Laboratories, Inc., Webster, Tex.). The calibrated assay range was 12.5-250.0 μlU/mL. Serum from rats was obtained internally from stock animals and used to prepare calibration standards and low and high quality control samples (LQC, HQC). The low and high quality control samples for the second curve were prepared at 30 and 150 μlU/mL, respectively. Calibration standards were prepared fresh daily and quality control samples were stored at a nominal temperature of −20° C. Concentration values (test samples) were read from the standard curve, averaged for each time point (n=5), and plotted as mean serum concentration of insulin (±SEM) versus time. […]

SMILES	% Glucose Cmin (Rat) [%]
O=C(O)CCOc1ccccc1Cl [Compound 1, 3-2-Chloro-phenoxy-propionic acid]	−47.0
Cc1ccc(OCCC(=O)O)cc1C [Compound 2, 3-(3,4-Dimethyl-phenoxy)-propionic acid]	−48.2
Cc1cc(C)cc(OCCC(=O)O)c1 [Compound 3, 3-(3,5-Dimethyl-phenoxy)-propionic acid]	−16.6
Cc1ccc(C)c(OCCC(=O)O)c1 [Compound 4, 3-(2,5-Dimethyl-phenoxy)-propionic acid]	−39.6
Cc1cccc(OCCC(=O)O)c1C [Compound 5, 3-(2,3-Dimethyl-phenoxy)-propionic acid]	−22.2
Cc1cccc(OCCC(=O)O)c1 [Compound 6, 3-m-Tolyloxy-propionic acid]	−29.3
Cc1cccc(C)c1OCCC(=O)O [Compound 7, 3-(2,6-Dimethyl-phenoxy)-propionic acid]	−42.1
Cc1ccccc1OCCC(=O)O [Compound 8, 3-o-Tolyloxy-propionic acid]	−24.2
Cc1ccc(OCCC(=O)O)c(C)c1 [Compound 9, 3-(2,4-Dimethyl-phenoxy)-propionic acid]	−40.3
